Consider 14 compounds from paper PMC8976226 (Mutagenesis, 2022).

Each structure is given as a SMILES string. Counter-ions that a name gives are not always drawn. Like-named read-outs stand apart in the source and are kept apart here.

For data set [1], the system named is GADD45a gene. As to conditions: published fragrance safety assessment; cited from earlier work.
A further data set has as its system mammalian cell. The data set can be described thus: In vitro mammalian cell micronucleus test. In kind it is cell-based. The conditions noted are these: overall outcome in current dataset.
The subject of the next data set is mouse. As to conditions: cited from earlier work.
The conditions of data set [2]: weight of evidence of all available in vitro and in vivo data.
Data set [3] deals with GADD45a gene. The data set can be described thus: BlueScreen HC assay. As to conditions: fragrance materials, TK6 cells.
Data set [4] concerns human peripheral lymphocytes. The conditions noted are these: cited from earlier work.
Data set [5] has as its system Salmonella typhimurium, Escherichia coli tester strains. As to conditions: cited from earlier work.
For data set [6] the test system is unchanged. The experiment in a line: Bacterial reverse mutation test. In kind it is cell-based. The conditions noted are these: overall outcome.
For the next data set, the system named is L5178 TK +/− cell. As to conditions: cited from earlier work.
Data set [7] has as its system Chinese hamster V79 cells. As to conditions: cited from earlier work.
The conditions of data set [8]: cited from earlier work.
Data set [9] has as its system Chinese hamster lung, ovary, or fibroblast cells. As to conditions: ref RIFM Database, cited from earlier work; for chromosomal aberration assay result: Chinese hamster lung, ovary, or fibroblast cells.
The subject of data set [10] is reconstructed skin (EpiDerm™). The conditions noted are these: cited from earlier work.
In a further data set the test system is mice. As to conditions: cited from earlier work.

In the case of `CCCCCCC(OCC)OCC` [1,1-diethoxyheptane], in the data set on GADD45a gene [1], the “BlueScreen HC result” value is given as “negative”.
`CC12CCCC(C)(CC1)C2=NO` [1,5-dimethylbicyclo[3.2.1]octan-8-one-oxime]: the “in vitro MNT result” value with mammalian cell was “positive”. For the same compound, the “in vivo micronucleus test result” value in the data set on mouse was “negative”. Further, the “genotoxic potential conclusion (WoE)” value in [2] was “not genotoxic”. The “BlueScreen HC result” value in the data set on GADD45a gene [3] is recorded as “negative”. In addition, the “in vitro micronucleus assay result” value in data set [4] (3- and 24- h time points with and without metabolic activation) is recorded as “Positive”.
On to `CC(=O)C1CC(C)=CC(C)C1C` (stereo not shown) [1-(3,5,6-trimethyl-3-cyclohexen-1-yl)ethan-1-one], for which the Ames assay result in data set [5] (Escherichia coli strain WP2uvrA without metabolic activation) and in data set [6] was “positive” each time. Moreover, the “Ames assay result, third confirmatory study” value in [5] (similar concentrations, E. coli WP2uvrA or TA102) is “no positive effects”. In [2], the “genotoxic potential conclusion (WoE)” value is given as “unlikely to have genotoxic potential in vivo”. The “BlueScreen HC result” value with GADD45a gene [3] is “negative”. Also, the “in vitro micronucleus assay result” value in data set [4] is recorded as “negative”. In the data set with L5178 TK +/− cell, the “mammalian cell line mutagenicity study (HPRT) result” value is “negative”.
For `CC(=CC#N)CCc1ccccc1` [3-methyl-5-phenylpent-2-enenitrile], the “in vitro MNT result” value in the data set on mammalian cell is on record as “positive”. The “in vivo micronucleus test result” value in the data set with mouse was “negative”. Moreover, the “in vitro micronucleus assay result” value in data set [7] (4-h time point with metabolic activation) is “Positive”. Moreover, the “genotoxic potential conclusion (WoE)” value in data set [2] was “not genotoxic”. Moreover, the “BlueScreen HC result” value in the data set on GADD45a gene [3] is “negative”.
In the case of `CC(C)C12CCC(C)(O)C1C2` (stereo not shown) [4-thujanol], the “in vitro MNT result” value in the data set with mammalian cell is “positive”. In the data set on mouse, the “in vivo micronucleus study result” value was “negative”. Further, in the data set with GADD45a gene [3], the “BlueScreen HC result” value is listed as “negative”. Besides, the “in vitro micronucleus study result” value in [4] (4-h time point, absence of metabolic activation) was “positive”.
Consider `Cc1cccc2nccnc12` [5-methylquinoxaline], for which the “in vitro MNT result” value in the data set with mammalian cell was “positive”. Also, the “in vivo micronucleus assays result” value in [8] (two assays) is “negative”. Further, in [2], the “genotoxic potential conclusion (WoE)” value is listed as “devoid of genotoxic activity in vivo”. Also, the “BlueScreen HC result” value in the data set on GADD45a gene [3] is reported as “negative”. Besides, the “in vitro micronucleus study result” value in data set [4] (4-h treatment) is given as “negative”; in [4] (without metabolic activation, 24-h treatment), “positive”.
With `CC(C)C(=O)O` [Isobutyric acid], the Ames test result in data set [5] is listed as “negative”.
As for `COc1ccc(COC=O)cc1` [anisyl formate], in the data set with GADD45a gene [3], the “BlueScreen HC result” value is reported as “negative”. In [4], the “in vitro micronucleus assay result” value is recorded as “negative”. In the data set on L5178 TK +/− cell, the “mammalian cell line mutagenicity study (MLA/HPRT) result” value is given as “negative”.
For `N#C/C=C/c1ccccc1` [cinnamyl nitrile, Cinnamyl nitrile], in data set [9], the “chromosomal aberration assay result” value was “positive”. Besides, the “in vitro micronucleus result” value in data set [7] (Chinese hamster V79 cells) is “negative”. In addition, in data set [2], the “genotoxic potential conclusion (WoE)” value is listed as “lack genotoxic potential in vivo”. The “BlueScreen HC result” value in the data set on GADD45a gene [3] was “negative”.
With `COC1CC2CCC1(C)C2(C)C` (stereo not shown) [isobornyl methyl ether], in the data set on mammalian cell, the “in vitro MNT result” value is reported as “positive”. Further, the “BlueScreen HC result” value in the data set on GADD45a gene [3] was “negative”. For the same compound, the “in vitro micronucleus confirmatory assay result” value in [4] (confirmatory assay, dose response not observed) was “increases only at the highest dose level”. Besides, in data set [4] (presence of metabolic activation, 4-h time point), the “in vitro micronucleus study result” value was “positive”. The “3D skin micronucleus study result” value in data set [10] is on record as “negative”.
`CC(C)CO` [isobutyl alcohol]: in data set [8], the “in vivo micronucleus test result” value was “negative”.
As for `COC(=O)CC(C)=O` [methyl acetoacetate, Methyl acetoacetate], the “chromosomal aberration assay result” value in [9] is “positive”. For the same compound, in data set [2], the “genotoxic potential conclusion (WoE)” value is listed as “lack genotoxic potential in vivo”. The “BlueScreen HC result” value with GADD45a gene [3] is “negative”. In addition, the “in vitro micronucleus result” value in data set [4] (human lymphocytes) was “negative”.
In the case of `COC(=O)c1ccccc1N` [methyl anthranilate, Methyl anthranilate], the “2-year in vivo carcinogenicity study result” value with mice is “did not show any carcinogenic effects”. In addition, the “in vitro chromosomal aberration study result” value in data set [9] (Chinese hamster fibroblast cell line (B 241)) is given as “positive”. Further, the “chromosomal aberration assay result” value in data set [9] is “positive”. Also, in the data set on GADD45a gene [3], the “BlueScreen HC result” value was “negative”.
On to `CC(=O)/C=C/C1C(C)=CCCC1(C)C` (stereo not drawn) [α-ionone, α-Ionone], for which the “chromosomal aberration assay result” value in data set [9] is “positive”. The “in vivo mouse micronucleus study result” value in the data set with mouse is listed as “negative”. Moreover, in data set [2], the “genotoxic potential conclusion (WoE)” value is “lack genotoxic potential in vivo”. For the same compound, in the data set on GADD45a gene [3], the “BlueScreen HC result” value is recorded as “negative”. Also, the “in vitro micronucleus study result” value in data set [4] (human peripheral lymphocytes) is “negative”.
